Measurements reported in US20020111274A1, “1-alkyl-3-[1-(substituted phenyl) benzotriazol-6-yl] uracils” (BASF Aktiengesellschaft, priority 2000, published 2002).

Legend:
Design in all cases: scale not given here
[1] = test system: ORYSAT Rice, Tebonnet; experiment: Postemergence herbicidal evaluation, ORYSAT; type: in vivo, Oryza sativa, (L.); settings: postemergence spray, rated about two-three weeks after treatment
Summary of the method: (§1)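 Seedlings grown about two weeks were sprayed with compound in 80/20 acetone/water containing 1.0% methylated seed oil, at the equivalent of about 0.006 to 0.400 kg/ha, through a nozzle at 40 psi. Plants were kept in the greenhouse and rated visually about two to three weeks after treatment.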

[2] = test system: CHEAL Lambsquarters, Common; experiment: Postemergence herbicidal evaluation, CHEAL; type: in vivo, Chenopodium album, L.; settings: postemergence spray, rated about two-three weeks after treatment
Summary of the method: as §1

[3] = test system: ABUTH Velvetleaf; experiment: Preemergence herbicidal evaluation, ABUTH; type: in vivo, Abutilon theophrasti, Medic.; settings: preemergence
Summary of the method: (§2)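 Seeds mixed with potting soil were planted on about one inch of soil in cups, then sprayed with the test compound in aqueous acetone at roughly 0.013 to 0.800 kg per hectare. Plants were kept under standard greenhouse care and injury was rated four to five weeks after treatment.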

[4] = test system: CASOB Sicklepod; experiment: Postemergence herbicidal evaluation, CASOB; type: in vivo, Cassia obtusifolia, L.; settings: postemergence spray, rated about two-three weeks after treatment
Summary of the method: as §1

[5] = test system: TRZAWR Wheat, Winter, cv Riband; experiment: Preemergence herbicidal evaluation, TRZAWR; type: in vivo, Triticum aestivum; settings: preemergence
Summary of the method: as §2

[6] = test system: ZEAMX Corn, Field; experiment: Preemergence herbicidal evaluation, ZEAMX; type: in vivo, Zea mays, L. (Sammel-Bezeichnung); settings: preemergence
Summary of the method: as §2

[7] = test system: GALAP Galium; experiment: Preemergence herbicidal evaluation, GALAP; type: in vivo, Galium aparine; settings: preemergence
Summary of the method: as §2

[8] = test system: GLXMAW Soybean, Williams; experiment: Postemergence herbicidal evaluation, GLXMAW; type: in vivo, Glycine max, (L.) Merr. cv Williams; settings: postemergence spray, rated about two-three weeks after treatment
Summary of the method: as §1

[9] = test system: ZEAMX Corn, Field; experiment: Postemergence herbicidal evaluation, ZEAMX; type: in vivo, Zea mays, L. (Sammel-Bezeichnung); settings: postemergence spray, rated about two-three weeks after treatment
Summary of the method: as §1

[10] = test system: AMBEL Ragweed, Common; experiment: Postemergence herbicidal evaluation, AMBEL; type: in vivo, Ambrosia artemisifolia, L.; settings: postemergence spray, rated about two-three weeks after treatment
Summary of the method: as §1

[11] = test system: ECHOG Barnyardgrass; experiment: Postemergence herbicidal evaluation, ECHOG; type: in vivo, Echinochloa crus-galli, (L.) Beau; settings: postemergence spray, rated about two-three weeks after treatment
Summary of the method: as §1

[12] = test system: IPOHE Morningglory, Ivyleaf; experiment: Preemergence herbicidal evaluation, IPOHE; type: in vivo, Ipomoea hederacea, (L.) Jacq.; settings: preemergence
Summary of the method: as §2

[13] = test system: GALAP Galium; experiment: Postemergence herbicidal evaluation, GALAP; type: in vivo, Galium aparine; settings: postemergence spray, rated about two-three weeks after treatment
Summary of the method: as §1

[14] = test system: ECHOG Barnyardgrass; experiment: Preemergence herbicidal evaluation, ECHOG; type: in vivo, Echinochloa crus-galli, (L.) Beau; settings: preemergence
Summary of the method: as §2

[15] = test system: TRZAWR Wheat, Winter, cv Riband; experiment: Postemergence herbicidal evaluation, TRZAWR; type: in vivo, Triticum aestivum; settings: postemergence spray, rated about two-three weeks after treatment
Summary of the method: as §1

[16] = test system: SETVI Foxtail, Green; experiment: Preemergence herbicidal evaluation, SETVI; type: in vivo, Setaria viridis, (L.) Beau; settings: preemergence
Summary of the method: as §2

[17] = test system: IPOHE Morningglory, Ivyleaf; experiment: Postemergence herbicidal evaluation, IPOHE; type: in vivo, Ipomoea hederacea, (L.) Jacq.; settings: postemergence spray, rated about two-three weeks after treatment
Summary of the method: as §1

[18] = test system: GLXMAW Soybean, Williams; experiment: Preemergence herbicidal evaluation, GLXMAW; type: in vivo, Glycine max, (L.) Merr. cv Williams; settings: preemergence
Summary of the method: as §2

[19] = test system: CASOB Sicklepod; experiment: Preemergence herbicidal evaluation, CASOB; type: in vivo, Cassia obtusifolia, L.; settings: preemergence
Summary of the method: as §2

[20] = test system: ORYSAT Rice, Tebonnet; experiment: Preemergence herbicidal evaluation, ORYSAT; type: in vivo, Oryza sativa, (L.); settings: preemergence
Summary of the method: as §2

[21] = test system: SETVI Foxtail, Green; experiment: Postemergence herbicidal evaluation, SETVI; type: in vivo, Setaria viridis, (L.) Beau; settings: postemergence spray, rated about two-three weeks after treatment
Summary of the method: as §1

[22] = test system: CHEAL Lambsquarters, Common; experiment: Preemergence herbicidal evaluation, CHEAL; type: in vivo, Chenopodium album, L.; settings: preemergence
Summary of the method: as §2

[23] = test system: AMBEL Ragweed, Common; experiment: Preemergence herbicidal evaluation, AMBEL; type: in vivo, Ambrosia artemisifolia, L.; settings: preemergence
Summary of the method: as §2

[24] = test system: ABUTH Velvetleaf; experiment: Postemergence herbicidal evaluation, ABUTH; type: in vivo, Abutilon theophrasti, Medic.; settings: postemergence spray, rated about two-three weeks after treatment
Summary of the method: as §1

SMILES: COC(=O)COc1ccc(-n2nnc3cc(F)c(-n4c(=O)cc(C(F)(F)F)n(C)c4=O)cc32)c(C)c1 [Example 39]
- Postemergence herbicidal rating ORYSAT ([1]; 0.008 kg/ha): 0.0
- Postemergence herbicidal rating ORYSAT ([1]; 0.016 kg/ha): 0.5
- Postemergence herbicidal rating ORYSAT ([1]; 0.032 kg/ha): 1.0
- Postemergence herbicidal rating ORYSAT ([1]; 0.062 kg/ha): 4.0
- Postemergence herbicidal rating CHEAL ([2]; 0.008 kg/ha): 0.0
- Postemergence herbicidal rating CHEAL ([2]; 0.016 kg/ha): 2.0
- Postemergence herbicidal rating CHEAL ([2]; 0.032 kg/ha): 2.0
- Postemergence herbicidal rating CHEAL ([2]; 0.062 kg/ha): 7.0
- ABUTH herbicidal rating ([3]; rate 0.016 kg/ha): 0.0
- ABUTH herbicidal rating ([3]; rate 0.032 kg/ha): 5.0
- ABUTH herbicidal rating ([3]; rate 0.062 kg/ha): 9.0
- ABUTH herbicidal rating ([3]; rate 0.125 kg/ha): 9.0
- Postemergence herbicidal rating CASOB ([4]; 0.008 kg/ha): 0.0
- Postemergence herbicidal rating CASOB ([4]; 0.016 kg/ha): 0.0
- Postemergence herbicidal rating CASOB ([4]; 0.032 kg/ha): 0.0
- Postemergence herbicidal rating CASOB ([4]; 0.062 kg/ha): 2.0
- TRZAWR herbicidal rating ([5]; rate 0.016 kg/ha): 0.0
- TRZAWR herbicidal rating ([5]; rate 0.032 kg/ha): 0.0
- TRZAWR herbicidal rating ([5]; rate 0.062 kg/ha): 0.0
- TRZAWR herbicidal rating ([5]; rate 0.125 kg/ha): 0.0
- ZEAMX herbicidal rating ([6]; rate 0.016 kg/ha): 0.0
- ZEAMX herbicidal rating ([6]; rate 0.032 kg/ha): 0.0
- ZEAMX herbicidal rating ([6]; rate 0.062 kg/ha): 0.0
- ZEAMX herbicidal rating ([6]; rate 0.125 kg/ha): 0.0
- GALAP herbicidal rating ([7]; rate 0.016 kg/ha): 0.0
- GALAP herbicidal rating ([7]; rate 0.032 kg/ha): 0.0
- GALAP herbicidal rating ([7]; rate 0.062 kg/ha): 0.0
- GALAP herbicidal rating ([7]; rate 0.125 kg/ha): 7.0
- Postemergence herbicidal rating GLXMAW ([8]; 0.008 kg/ha): 3.5
- Postemergence herbicidal rating GLXMAW ([8]; 0.016 kg/ha): 3.5
- Postemergence herbicidal rating GLXMAW ([8]; 0.032 kg/ha): 4.0
- Postemergence herbicidal rating GLXMAW ([8]; 0.062 kg/ha): 5.0
- Postemergence herbicidal rating ZEAMX ([9]; 0.008 kg/ha): 7.0
- Postemergence herbicidal rating ZEAMX ([9]; 0.016 kg/ha): 7.5
- Postemergence herbicidal rating ZEAMX ([9]; 0.032 kg/ha): 7.5
- Postemergence herbicidal rating ZEAMX ([9]; 0.062 kg/ha): 7.5
- Postemergence herbicidal rating AMBEL ([10]; 0.008 kg/ha): 0.0
- Postemergence herbicidal rating AMBEL ([10]; 0.016 kg/ha): 0.0
- Postemergence herbicidal rating AMBEL ([10]; 0.032 kg/ha): 6.0
- Postemergence herbicidal rating AMBEL ([10]; 0.062 kg/ha): 7.0
- Postemergence herbicidal rating ECHCG ([11]; 0.008 kg/ha): 0.0
- Postemergence herbicidal rating ECHCG ([11]; 0.016 kg/ha): 0.0
- Postemergence herbicidal rating ECHCG ([11]; 0.032 kg/ha): 0.0
- Postemergence herbicidal rating ECHCG ([11]; 0.062 kg/ha): 3.0
- IPOHE herbicidal rating ([12]; rate 0.016 kg/ha): 0.0
- IPOHE herbicidal rating ([12]; rate 0.032 kg/ha): 0.0
- IPOHE herbicidal rating ([12]; rate 0.062 kg/ha): 0.0
- IPOHE herbicidal rating ([12]; rate 0.125 kg/ha): 3.0
- Postemergence herbicidal rating GALAP ([13]; 0.008 kg/ha): 0.0
- Postemergence herbicidal rating GALAP ([13]; 0.016 kg/ha): 0.0
- Postemergence herbicidal rating GALAP ([13]; 0.032 kg/ha): 3.0
- Postemergence herbicidal rating GALAP ([13]; 0.062 kg/ha): 3.0
- ECHCG herbicidal rating ([14]; rate 0.016 kg/ha): 0.0
- ECHCG herbicidal rating ([14]; rate 0.032 kg/ha): 0.0
- ECHCG herbicidal rating ([14]; rate 0.062 kg/ha): 0.0
- ECHCG herbicidal rating ([14]; rate 0.125 kg/ha): 0.0
- Postemergence herbicidal rating TRZAWR ([15]; 0.008 kg/ha): 2.5
- Postemergence herbicidal rating TRZAWR ([15]; 0.016 kg/ha): 3.0
- Postemergence herbicidal rating TRZAWR ([15]; 0.032 kg/ha): 3.5
- Postemergence herbicidal rating TRZAWR ([15]; 0.062 kg/ha): 5.5
- SETVI herbicidal rating ([16]; rate 0.016 kg/ha): 0.0
- SETVI herbicidal rating ([16]; rate 0.032 kg/ha): 0.0
- SETVI herbicidal rating ([16]; rate 0.062 kg/ha): 0.0
- SETVI herbicidal rating ([16]; rate 0.125 kg/ha): 4.0
- Postemergence herbicidal rating IPOHE ([17]; 0.008 kg/ha): 9.0
- Postemergence herbicidal rating IPOHE ([17]; 0.016 kg/ha): 8.0
- Postemergence herbicidal rating IPOHE ([17]; 0.032 kg/ha): 9.0
- Postemergence herbicidal rating IPOHE ([17]; 0.062 kg/ha): 9.0
- GLXMAW herbicidal rating ([18]; rate 0.016 kg/ha): 0.0
- GLXMAW herbicidal rating ([18]; rate 0.032 kg/ha): 0.0
- GLXMAW herbicidal rating ([18]; rate 0.062 kg/ha): 0.0
- GLXMAW herbicidal rating ([18]; rate 0.125 kg/ha): 0.0
- CASOB herbicidal rating ([19]; rate 0.016 kg/ha): 0.0
- CASOB herbicidal rating ([19]; rate 0.032 kg/ha): 0.0
- CASOB herbicidal rating ([19]; rate 0.062 kg/ha): 0.0
- CASOB herbicidal rating ([19]; rate 0.125 kg/ha): 0.0
- ORYSAT herbicidal rating ([20]; rate 0.016 kg/ha): 0.0
- ORYSAT herbicidal rating ([20]; rate 0.032 kg/ha): 0.0
- ORYSAT herbicidal rating ([20]; rate 0.062 kg/ha): 0.0
- ORYSAT herbicidal rating ([20]; rate 0.125 kg/ha): 3.0
- Postemergence herbicidal rating SETVI ([21]; 0.008 kg/ha): 0.0
- Postemergence herbicidal rating SETVI ([21]; 0.016 kg/ha): 0.0
- Postemergence herbicidal rating SETVI ([21]; 0.032 kg/ha): 0.0
- Postemergence herbicidal rating SETVI ([21]; 0.062 kg/ha): 2.0
- CHEAL herbicidal rating ([22]; rate 0.016 kg/ha): 3.0
- CHEAL herbicidal rating ([22]; rate 0.032 kg/ha): 3.0
- CHEAL herbicidal rating ([22]; rate 0.062 kg/ha): 9.0
- CHEAL herbicidal rating ([22]; rate 0.125 kg/ha): 9.0
- AMBEL herbicidal rating ([23]; rate 0.016 kg/ha): 0.0
- AMBEL herbicidal rating ([23]; rate 0.032 kg/ha): 0.0
- AMBEL herbicidal rating ([23]; rate 0.062 kg/ha): 0.0
- AMBEL herbicidal rating ([23]; rate 0.125 kg/ha): 0.0
- Postemergence herbicidal rating ABUTH ([24]; 0.008 kg/ha): 9.0
- Postemergence herbicidal rating ABUTH ([24]; 0.016 kg/ha): 9.0
- Postemergence herbicidal rating ABUTH ([24]; 0.032 kg/ha): 9.0
- Postemergence herbicidal rating ABUTH ([24]; 0.062 kg/ha): 9.0
